According to patent US10980889B1 (Revolution Medicines, Inc., priority 2018, dated 2021):
Where two headings read alike, the source gives them in different places.

What was measured:
Details in all cases: two to four hours at 37° C.; for IC50: Homo sapiens, 4 h
[1] = test system: P-P70S6K (T389); test: Cell based AlphaLISA assay, inhibition of P-P70S6K (T389) in MDA-MB-468 cells (mTORC1 substrate)
Protocol: (§1) Cell Based AlphaLISA Assays For Determining IC50 For Inhibition of P-Akt (S473), P-4E-BP1(T37/46), and P-P70S6K (T389) in MDA-MB-468 Cells
(§2) mTOR Kinase Cellular Assay
(§3) To measure functional activity of mTORC1 and mTORC2 in cells the phosphorylation of 4EBPT (Thr37/46) and P70S6K (Thr389), and AKT1/2/3 (Ser473) was monitored using AlphaLisa SureFire Ultra Kits (Perkin Elmer). […] Incubations were terminated by removal of the assay buffer and addition of lysis buffer provided with the assay kit. Samples were processed according to the manufacturer's instructions. The Alpha signal from the respective phosphoproteinswas measured in duplicate using a microplate reader (Envision, Perkin-Elmer or Spectramax M5, Molecular Devices). Inhibitor concentration response curves were analyzed using normalized IC50 regression curve filling with control based normalization.

[2] = test system: P-4E-BP1 (T37/46); test: Cell based AlphaLISA assay, inhibition of P-4E-BP1 (T37/46) in MDA-MB-468 cells (mTORC1 substrate)
Protocol: as §1, §2, §3

[3] = test system: P-Akt (S473); test: Cell based AlphaLISA assay, inhibition of P-Akt (S473) in MDA-MB-468 cells (mTORC2 substrate)
Protocol: as §1, §2, §3

[4] = AlphaLisa, read-out: pIC50 for Inhibition of mTORC1 and mTORC2 Substrate Phosphorylation p-P70S6K-(T389) (converted)
[5] = AlphaLisa, read-out: pIC50 for Inhibition of mTORC1 and mTORC2 Substrate Phosphorylation P-4E-BP1-(T37/46) (converted)
[6] = AlphaLisa, read-out: pIC50 for Inhibition of mTORC1 and mTORC2 Substrate Phosphorylation p-AKT1/2/3-(S473) (converted)

Structure (SMILES) | IC50 [1, 4] [nM] | IC50 [2, 5] [nM] | IC50 [3, 6] [nM] | also measured
CO[C@H]1C[C@@H]2CC[C@@H](C)[C@@](O)(O2)C(=O)C(=O)N2CCCC[C@H]2C(=O)O[C@H]([C@H](C)C[C@@H]2CC[C@@H](OC(=O)NCc3cnc(N4CCN(C(=O)CCOCCN5CCN(c6ncc(C(=O)N7CCc8cc(Cn9nc(-c%10cnc%11[nH]ccc%11c%10)c%10c(N)ncnc%109)ccc8C7)cn6)CC5)[C@@H](C(=O)O)C4)nc3)[C@H](OC)C2)CC(=O)[C@H](C)/C=C(\C)[C@@H](O)[C@@H](OC)C(=O)[C@H](C)C[C@H](C)/C=C/C=C/C=C/1C [Example 135] | < 1 | > 1000 | > 1000 | 
CO[C@H]1C[C@@H]2CC[C@@H](C)[C@@](O)(O2)C(=O)C(=O)N2CCCC[C@H]2C(=O)O[C@H]([C@H](C)C[C@@H]2CC[C@@H](OC(=O)NCc3cnc(N4CCN(CCOCCN5CCN(c6ncc(C(=O)N7CCc8cc(Cn9nc(-c%10ccc%11oc(N)nc%11c%10)c%10c(N)ncnc%109)ccc8C7)cn6)CC5)CC4)nc3)[C@H](OC)C2)C[C@@H](OC)[C@H](C)/C=C(\C)[C@@H](O)[C@@H](OC)C(=O)[C@H](C)C[C@H](C)/C=C/C=C/C=C/1C [Example 128] | < 1 | 3.16 to 31.6 | 31.6 to 1000 | 
CO[C@H]1C[C@@H]2CC[C@@H](C)[C@@](O)(O2)C(=O)C(=O)N2CCCC[C@H]2C(=O)O[C@H]([C@H](C)C[C@@H]2CC[C@@H](OC(=O)NCc3cnc(N4CCN(C(=O)CCOCCOCCN5CCN(c6ncc(C(=O)N7CCc8cc(Cn9nc(-c%10ccc%11[nH]ccc%11c%10)c%10c(N)ncnc%109)ccc8C7)cn6)CC5)CC4)nc3)[C@H](OC)C2)CC(=O)[C@H](C)/C=C(\C)[C@@H](O)[C@@H](OC)C(=O)[C@H](C)C[C@H](C)/C=C/C=C/C=C/1C [Example 126] | < 1 | 3.16 to 31.6 | > 1000 | 
CO[C@H]1C[C@@H]2CC[C@@H](C)[C@@](O)(O2)C(=O)C(=O)N2CCCC[C@H]2C(=O)O[C@H]([C@H](C)C[C@@H]2CC[C@@H](OC(=O)NCc3cnc(N4CCN(CCOCCOCCOCCOCCC(=O)N5CCc6cc(Cn7nc(-c8ccc9oc(N)nc9c8)c8c(N)ncnc87)ccc6C5)CC4)nc3)[C@H](OC)C2)CC(=O)[C@H](C)/C=C(\C)[C@@H](O)[C@@H](OC)C(=O)[C@H](C)C[C@H](C)/C=C/C=C/C=C/1C [Example 88] | < 1 | < 3.16 | 3.16 to 31.6 | 
CO[C@H]1C[C@@H]2CC[C@@H](C)[C@@](O)(O2)C(=O)C(=O)N2CCCC[C@H]2C(=O)O[C@H]([C@H](C)C[C@@H]2CC[C@@H](OC(=O)NCc3cnc(N4CCN(C(=O)CCOCCN5CCN(c6ncc(C(=O)N7CCc8cc(Cn9nc(-c%10ccc%11oc(N)nc%11c%10)c%10c(N)ncnc%109)ccc8C7)cn6)CC5)[C@@H](C(=O)O)C4)nc3)[C@H](OC)C2)C[C@@H](OC)[C@H](C)/C=C(\C)[C@@H](O)[C@@H](OC)C(=O)[C@H](C)C[C@H](C)/C=C/C=C/C=C/1C [Example 134] | < 1 | < 3.16 | > 1000 | 
CO[C@H]1C[C@@H]2CC[C@@H](C)[C@@](O)(O2)C(=O)C(=O)N2CCCC[C@H]2C(=O)O[C@H]([C@H](C)C[C@@H]2CC[C@@H](OC(=O)NCc3cnc(N4CCN(C(=O)CCOCCN5CCN(c6ncc(C(=O)N7CCc8cc(Cn9nc(-c%10ccc%11oc(N)nc%11c%10)c%10c(N)ncnc%109)ccc8C7)cn6)CC5)CC4)nc3)[C@H](OC)C2)C[C@@H](OC)[C@H](C)/C=C(\C)[C@@H](O)[C@@H](OC)C(=O)[C@H](C)C[C@H](C)/C=C/C=C/C=C/1C [Example 114] | < 1 | < 3.16 | > 1000 | 
CC(C)n1nc(-c2ccc3oc(N)nc3c2)c2c(N)ncnc21 [MLN-128, reference compound] |  |  |  | IC50 ([1]; AlphaLisa SureFire Ultra, read-out: IC50 for Inhibition of mTORC1 and mTORC2 Substrate Phosphorylation (nM) p-P7056K-(T389)): 1.4 nM; IC50 ([2]; AlphaLisa SureFire Ultra, read-out: IC50 for Inhibition of mTORC1 and mTORC2 Substrate Phosphorylation (nM) p-4E-BP1-(T37/46)): 16 nM; IC50 ([3]; AlphaLisa SureFire Ultra, read-out: IC50 for Inhibition of mTORC1 and mTORC2 Substrate Phosphorylation (nM) p-AKT1/2/3-(5473)): 3.7 nM
CO[C@H]1C[C@@H]2CC[C@@H](C)[C@@](O)(O2)C(=O)C(=O)N2CCCC[C@H]2C(=O)O[C@H]([C@H](C)C[C@@H]2CC[C@@H](OC(=O)NCCOCCOCCOCCOCCOCCOCCOCCOCCC(=O)NCc3ccc(Cn4nc(-c5ccc6oc(N)nc6c5)c5c(N)ncnc54)cc3)[C@H](OC)C2)C[C@@H](OC)[C@H](C)/C=C(\C)[C@@H](O)[C@@H](OC)C(=O)[C@H](C)C[C@H](C)/C=C/C=C/C=C/1C [Example 37] | < 1 | < 3.16 | > 1000 | 
CO[C@H]1C[C@@H]2CC[C@@H](C)[C@@](O)(O2)C(=O)C(=O)N2CCCC[C@H]2C(=O)O[C@H]([C@H](C)C[C@@H]2CC[C@@H](OC(=O)NCc3cnc(N4CCN(c5ncc(C(=O)NCCOCCC(=O)N6CCN(c7ncc(C(=O)NCCCCn8nc(-c9ccc%10oc(N)nc%10c9)c9c(N)ncnc98)cn7)CC6)cn5)CC4)nc3)[C@H](OC)C2)CC(=O)[C@H](C)/C=C(\C)[C@@H](O)[C@@H](OC)C(=O)[C@H](C)C[C@H](C)/C=C/C=C/C=C/1C [Example 111] | < 1 | < 3.16 | > 1000 | 
CO[C@H]1C[C@@H]2CC[C@@H](C)[C@@](O)(O2)C(=O)C(=O)N2CCCC[C@H]2C(=O)O[C@H]([C@H](C)C[C@@H]2CC[C@@H](OC(=O)NCc3cnc(N4CCN(C(=O)CCOCCN5CCN(c6ncc(C(=O)N7CCc8cc(Cn9nc(-c%10cnc%11[nH]ccc%11c%10)c%10c(N)ncnc%109)ccc8C7)cn6)CC5)CC4)nc3)[C@H](OC)C2)CC(=O)[C@H](C)/C=C(\C)[C@@H](O)[C@@H](OC)C(=O)[C@H](C)C[C@H](C)/C=C/C=C/C=C/1C [Example 110] | 1 to 10 | > 1000 | > 1000 | 
CO[C@H]1C[C@@H]2CC[C@@H](C)[C@@](O)(O2)C(=O)C(=O)N2CCCC[C@H]2C(=O)O[C@H]([C@H](C)C[C@@H]2CC[C@@H](OC(=O)NCc3cnc(N4CCN(C(=O)CN(C)CC(=O)NCCOCCOCCC(=O)N5CCc6cc(Cn7nc(-c8ccc9oc(N)nc9c8)c8c(N)ncnc87)ccc6C5)CC4)nc3)[C@H](OC)C2)CC(=O)[C@H](C)/C=C(\C)[C@@H](O)[C@@H](OC)C(=O)[C@H](C)C[C@H](C)/C=C/C=C/C=C/1C [Example 87] | < 1 | < 3.16 | 3.16 to 31.6 | 
CO[C@H]1C[C@@H]2CC[C@@H](C)[C@@](O)(O2)C(=O)C(=O)N2CCCC[C@H]2C(=O)O[C@H]([C@H](C)C[C@@H]2CC[C@@H](OC(=O)NCCOCCOCCOCCOCCOCCOCCOCCOCCC(=O)N3CCc4cc(Cn5nc(-c6ccc7oc(N)nc7c6)c6c(N)ncnc65)ccc4C3)[C@H](OC)C2)C[C@@H](O)[C@H](C)/C=C(\C)[C@@H](O)[C@@H](OC)C(=O)[C@H](C)C[C@H](C)/C=C/C=C/C=C/1C [Example 75] |  |  |  | pIC50 for Inhibition of mTORC1 and mTORC2 Substrate Phosphorylation p-P70S6K-(T389) ([1]; AlphaLisa): +++ (≥9); pIC50 for Inhibition of mTORC1 and mTORC2 Substrate Phosphorylation P-4E-BP1-(T37/46) ([2]; AlphaLisa): +++ (≥8.5); pIC50 for Inhibition of mTORC1 and mTORC2 Substrate Phosphorylation p-AKT1/2/3-(S473) ([3]; AlphaLisa): ++ (8.5 > pIC50 ≥ 7.5)
CO[C@H]1C[C@@H]2CC[C@@H](C)[C@@](O)(O2)C(=O)C(=O)N2CCCC[C@H]2C(=O)O[C@H]([C@H](C)C[C@@H]2CC[C@@H](OC(=O)NCc3cnc(N4CCN(C(=O)CCOCCN5CCN(c6ncc(C(=O)NCCCCn7nc(-c8ccc9oc(N)nc9c8)c8c(N)ncnc87)cn6)CC5)CC4)nc3)[C@H](OC)C2)CC(=O)[C@H](C)/C=C(\C)[C@@H](O)[C@@H](OC)C(=O)[C@H](C)C[C@H](C)/C=C/C=C/C=C/1C [Example 112] | < 1 | > 1000 | > 1000 | 
CO[C@H]1C[C@@H]2CC[C@@H](C)[C@@](O)(O2)C(=O)C(=O)N2CCCC[C@H]2C(=O)O[C@H]([C@H](C)C[C@@H]2CC[C@@H](OC(=O)NCc3cnc(N4CCN(C(=O)CN(C)CC(=O)NCCOCCOCCC(=O)N5CCc6cc(Cn7nc(-c8ccc9oc(N)nc9c8)c8c(N)ncnc87)ccc6C5)CC4)nc3)[C@H](OC)C2)C[C@@H](OC)[C@H](C)/C=C(\C)[C@@H](O)[C@@H](OC)C(=O)[C@H](C)C[C@H](C)/C=C/C=C/C=C/1C [Example 103] |  |  |  | pIC50 for Inhibition of mTORC1 and mTORC2 Substrate Phosphorylation p-P70S6K-(T389) ([1]; AlphaLisa): +++ (≥9); pIC50 for Inhibition of mTORC1 and mTORC2 Substrate Phosphorylation P-4E-BP1-(T37/46) ([2]; AlphaLisa): − (<6); pIC50 for Inhibition of mTORC1 and mTORC2 Substrate Phosphorylation p-AKT1/2/3-(S473) ([3]; AlphaLisa): − (<6)
CO[C@H]1C[C@@H]2CC[C@@H](C)[C@@](O)(O2)C(=O)C(=O)N2CCCC[C@H]2C(=O)O[C@H]([C@H](C)C[C@@H]2CC[C@@H](OC(=O)NCCOCCOCCOCCOCCOCCOCCOCCOCCC(=O)NCc3ccc(Cn4nc(-c5ccc6oc(N)nc6c5)c5c(N)ncnc54)cc3)[C@H](OC)C2)CC(=O)[C@H](C)/C=C(\C)[C@@H](O)[C@@H](OC)C(=O)[C@H](C)C[C@H](C)/C=C/C=C/C=C/1C [Example 79] |  |  |  | pIC50 for Inhibition of mTORC1 and mTORC2 Substrate Phosphorylation p-P70S6K-(T389) ([1]; AlphaLisa): +++ (≥9); pIC50 for Inhibition of mTORC1 and mTORC2 Substrate Phosphorylation P-4E-BP1-(T37/46) ([2]; AlphaLisa): +++ (≥8.5); pIC50 for Inhibition of mTORC1 and mTORC2 Substrate Phosphorylation p-AKT1/2/3-(S473) ([3]; AlphaLisa): + (7.5 > pIC50 ≥ 6.0)
